Measured values reported in ChEMBL document CHEMBL1201862, “PubChem BioAssay data set” (2004).
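Results reflect a 48-hour exposure of cells in 96-well plates to compound at five concentrations. The concentration for 50% growth inhibition is given as GI50.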 The source made the active and inactive calls. No stated cut-off is given here; in the data, active = GI50 up to about 1.1 µM and inactive = higher.

Experiments:
Test in all cases: NCI tumour cell line growth inhibition, 48 h
[1] = tested on: M19-MEL
[2] = tested on: SNB-78
[3] = tested on: LXFL 529
[4] = tested on: DMS-273
[5] = tested on: DMS-114
[6] = tested on: HOP-18
[7] = tested on: DLD-1
[8] = tested on: RXF 631
[9] = tested on: XF498

Structure (SMILES) | GI50 [1] | GI50 [2] | GI50 [3] | GI50 [4] | GI50 [5] | GI50 [6] | GI50 [7] | GI50 [8] | GI50 [9]
COc1ccc(C2=CN3CCC[C@H]3C=C2c2cc(O)c(OC)c(OC)c2)cc1OC | 0.00274 µM (active) | 0.00385 µM (active) | 0.00389 µM (active) | 0.00354 µM (active) | 0.00385 µM (active) | 0.00427 µM (active) | 0.00316 µM (active) |  | 
COC(=O)c1ccc(Cl)cc1NC(=O)C1CCCCC1 | > 100 µM (inactive) | > 100 µM (inactive) | > 100 µM (inactive) | > 100 µM (inactive) | > 100 µM (inactive) |  |  |  | 
C1C[N+]23CCC[N+]2(C1)CCC3 (stereo not given) | > 100 µM (inactive) | > 100 µM (inactive) | > 100 µM (inactive) | > 100 µM (inactive) | > 100 µM (inactive) | > 100 µM (inactive) | > 100 µM (inactive) | > 100 µM (inactive) | 
O=C1C(=O)C(Br)(Br)C(Br)=C1Br | 19.1 µM (inactive) |  | 15.2 µM (inactive) | 22.3 µM (inactive) | 18.8 µM (inactive) | 15.6 µM (inactive) | 18.8 µM (inactive) | 37.9 µM (inactive) | 
O=C(OCCOCCOC(=O)c1c[nH]cc1-c1ccccc1)c1c[nH]cc1-c1ccccc1 | 18.7 µM (inactive) | 19.3 µM (inactive) | 21.8 µM (inactive) | 15.9 µM (inactive) | 13.8 µM (inactive) |  | 24.8 µM (inactive) |  | 19.9 µM (inactive)
CCO/C([O-])=C(\C(=O)c1ccccc1)[n+]1c(C)n(C)c2ccccc21 | > 100 µM (inactive) | > 100 µM (inactive) | > 100 µM (inactive) | > 100 µM (inactive) | > 100 µM (inactive) | > 100 µM (inactive) | > 100 µM (inactive) |  | 
Cc1ccc(C)c(N2C(=O)C(=O)C(c3nc4ccccc4s3)/C(=N\c3cccc4c(=O)[nH][nH]c(=O)c34)C2=O)c1 (stereo not given) |  |  | > 100 µM (inactive) | > 100 µM (inactive) | > 100 µM (inactive) | > 100 µM (inactive) | > 100 µM (inactive) | > 100 µM (inactive) | 
C=C1C(C)C2C(Cc3ccccc3)NC(=O)C23OC(=O)/C=C\CC(=O)CCC(C)C/C=C/C3C1O (stereo not given) | 4.3 µM (inactive) | 0.36 µM (active) |  | 2.34 µM (inactive) | 2.42 µM (inactive) | 0.326 µM (active) | 1.18 µM (inactive) |  | 0.287 µM (active)
O=C(O)CNS(=O)(=O)c1ccc(NC(=O)c2cccc([N+](=O)[O-])c2)cc1 | > 100 µM (inactive) |  | > 100 µM (inactive) | > 100 µM (inactive) |  | > 100 µM (inactive) | > 100 µM (inactive) | > 100 µM (inactive) | > 100 µM (inactive)
C[Si](C)(C)OC1CC(=O)OC1n1cc(F)c(=O)[nH]c1=O (stereo not given) | 12.1 µM (inactive) |  | 52.4 µM (inactive) | 12.9 µM (inactive) | 27.2 µM (inactive) | 23.2 µM (inactive) | 7.62 µM (inactive) | 14.6 µM (inactive) | 90.2 µM (inactive)
COc1cccc2c1C(=O)c1c(O)c3c(c(O)c1C2=O)C[C@@](O)(C(=O)CO)C[C@@H]3OC1CC(N)C(O)C(C)O1 (stereo not given in full) | 0.2 µM (active) | 0.457 µM (active) |  | 0.0883 µM (active) | 0.0975 µM (active) | 0.478 µM (active) |  | 0.912 µM (active) | 
Cc1nn(C(=O)CC(=O)Nc2ccc(Cl)cc2)c(C)c1/N=N/c1ccccc1C(=O)O | > 100 µM (inactive) | > 100 µM (inactive) | > 100 µM (inactive) | > 100 µM (inactive) | > 100 µM (inactive) |  | > 100 µM (inactive) |  | 
N#CNc1nc(N)c(-c2ccc(Cl)cc2)c(C(=O)Nc2nccs2)n1 | > 100 µM (inactive) | > 100 µM (inactive) | > 100 µM (inactive) | > 100 µM (inactive) | > 100 µM (inactive) | > 100 µM (inactive) | > 100 µM (inactive) |  | > 100 µM (inactive)
O=C1CCC2(c3ccc(Cl)cc3)Nc3cc(Cl)ccc3N12 (stereo not given) | 12.8 µM (inactive) | 15.3 µM (inactive) | 10.8 µM (inactive) | 10.4 µM (inactive) | 7.4 µM (inactive) | 1.25 µM (inactive) | 5.75 µM (inactive) | 14.7 µM (inactive) | 2.31 µM (inactive)
CCCCNC(=O)CCN(C(=O)O)S(=O)(=O)c1ccc(NC(=O)c2ccccc2)cc1 | 79.4 µM (inactive) | > 100 µM (inactive) | > 100 µM (inactive) | 30.4 µM (inactive) | > 100 µM (inactive) | > 100 µM (inactive) | > 100 µM (inactive) |  | > 100 µM (inactive)
C=C(CCCCC)CN1CCCC1[C@@](C)(O)CC(=O)OCC (stereo not given in full) | > 100 µM (inactive) | > 100 µM (inactive) | > 100 µM (inactive) | > 100 µM (inactive) | > 100 µM (inactive) | > 100 µM (inactive) | > 100 µM (inactive) |  | > 76.6 µM (inactive)
NS(=O)(=O)c1ccc(NC(=O)c2cccc3c(Nc4ccc(S(N)(=O)=O)cc4)c4ccccc4nc23)cc1 | 21.4 µM (inactive) | 29.8 µM (inactive) | 12.2 µM (inactive) | 1.85 µM (inactive) | 39.3 µM (inactive) | > 100 µM (inactive) | 24.7 µM (inactive) | 3.48 µM (inactive) | 27.2 µM (inactive)
C/C=C1\CN2CCc3c([nH]c4ccccc34)C2C=C1CCO (stereo not given) | > 340 µM (inactive) |  | > 340 µM (inactive) | > 340 µM (inactive) | > 340 µM (inactive) |  | > 340 µM (inactive) | > 340 µM (inactive) | 208 µM (inactive)
COC(=O)/C(=N\NC(C)(C)C)C(C(=O)OC)C(=O)C(=O)Nc1cc(Cl)ccc1Cl (stereo not given) | > 100 µM (inactive) | > 100 µM (inactive) | > 100 µM (inactive) | > 100 µM (inactive) | > 100 µM (inactive) | > 100 µM (inactive) | > 100 µM (inactive) | > 100 µM (inactive) | > 100 µM (inactive)
CC1(C(=O)NCCN(CCNC(=O)C2(C)CC3(C)CC(C)(C2)C(=O)NC3=O)CCNC(=O)C2(C)CC3(C)CC(C)(C2)C(=O)NC3=O)CC2(C)CC(C)(C1)C(=O)NC2=O (stereo not given) | > 100 µM (inactive) | > 100 µM (inactive) | > 100 µM (inactive) | > 100 µM (inactive) | > 100 µM (inactive) | 94.4 µM (inactive) |  |  | > 100 µM (inactive)
Nc1ccc(C(=O)Nc2ccccc2N)cc1 [DINALINE] | 25.7 µM (inactive) | > 100 µM (inactive) | 22.5 µM (inactive) | 59.7 µM (inactive) | 34.5 µM (inactive) | 36.7 µM (inactive) | 44.3 µM (inactive) | 37.4 µM (inactive) | > 100 µM (inactive)
COC1OC(COS(=O)(=O)c2ccc(C)cc2)C(O)C(OS(=O)(=O)c2ccc(C)cc2)C1OS(=O)(=O)c1ccc(C)cc1 (stereo not given) | > 100 µM (inactive) | > 100 µM (inactive) | > 100 µM (inactive) | > 100 µM (inactive) | > 100 µM (inactive) | > 100 µM (inactive) | > 100 µM (inactive) | > 100 µM (inactive) | 
CC(=O)n1c2ccccc2c2nc3nc(Oc4ccc(C)cc4)c4ccccc4c3cc21 | > 100 µM (inactive) | 42.5 µM (inactive) | 97.9 µM (inactive) | > 100 µM (inactive) | > 100 µM (inactive) |  | > 100 µM (inactive) |  | 
Cc1nc2c(s/c(=N\N)n2-c2ccccc2)c(=O)n1C | > 100 µM (inactive) | > 100 µM (inactive) | > 100 µM (inactive) | > 100 µM (inactive) | > 100 µM (inactive) |  |  |  | > 100 µM (inactive)
Cc1ccc(NC(=O)COC(=O)c2cccc3c(=O)c4ccccc4[nH]c23)cc1 | 46.7 µM (inactive) | 27.6 µM (inactive) | 32.1 µM (inactive) | 23.6 µM (inactive) | 34.2 µM (inactive) | > 100 µM (inactive) | 14.6 µM (inactive) | 24.4 µM (inactive) | 41 µM (inactive)
Cc1nc2c(n1CCN(C)C)C(=O)c1ccccc1C2=O | 2.02 µM (inactive) | 24.7 µM (inactive) | 17.9 µM (inactive) | 13.5 µM (inactive) |  |  | 13.5 µM (inactive) |  | 18.3 µM (inactive)
